Where two headings read alike, the source gives them in different places.
Tests used:
[1] = tested on: Bovine rhinotracheitis virus (herpes virus family), vaccine strain TK-A (VIEV)-V2; test: Antiviral (virulicidal) activity, cytopathogenic effect on LCE cells; format: cell-based, IBR virus; conditions: for destruction of the monolayer, drug with the virus: virus incubated with drug one hour, LCE cells 72 hours; for concentration with virulicidal effect: herpes virus type 1, infectious titer 6.0 Ig TCD50/ml
Description: The study of the antiviral activity of compound I in vitro was carried out in accordance with [D. L. Kuznetsov, A. YA. Samuylenko, V. I. Belousov Immunofermentnaya diagnostika IRT KRS. Veterinariya.—2002.—No 3.—S. 22-25. D. L. Kuznetsov, A. Y. ? Samuylenko, V. I. Belousov Enzyme-linked immunosorbent assay for cattle IBR. Veterinary medicine.—2002.—No 3.—P. 22-25].
Cells of a light cow embryo (LCE) are obtained from the Federal State Budgetary Institution “All-Russian Institute of Experimental Veterinary Medicine”, Moscow. Bovine rhinotracheitis virus (herpes virus family), vaccine strain “TK-A (VIEV)-V2” was obtained from the Federal State Budgetary Institution “All-Russian Institute of Experimental Veterinary Medicine”, Moscow.
Evaluation of the antiviral activity of compound I was carried out in an appropriate medium on LCE cells that were infected with the IBR virus belonging to the type 1 herpes virus family.
The virus was incubated in the presence of compound I in a culture medium at 37° C. for one hour at various concentrations; miramistin and benzalkonium chloride served as control preparations. After incubation of the virus with substances, it was added to the cell culture, which was then incubated at 37° C., 5% CO2 for 72 hours.
Evaluation of the cytopathogenic effect was carried out visually by the state of the cell monolayer as compared with the controls (virus without incubation with the drug, the studied drug concentrations without the virus). The virus titer was calculated using the method of Reed-Muench in the modification of Ashmarin and expressed in Ig TCD50/ml.

Stylonychia mytilus = test: Antiprotozoal activity by death of protozoa; format: cell-based; conditions: for IC50: read-out: IC50 (95% confidence interval)
Description: Evaluation of the antiprotozoal activity of compound I was determined by the viability of the protozoa genus of hypotrichs Stylonychia mytilus in a nutrient medium in the presence of the studied substances. A mother liquor of compound I (10 mg/ml) was prepared in a mixture of DMSO and 96% ethanol (1:1). A 1% aqueous solution of DMSO and ethyl alcohol served as a negative control, and miramistin, benzalkonium chloride, and chlorhexidine were used as reference preparations. Then, from the mother liquors by repeated dilutions with water, working solutions were prepared corresponding to doses of 5; 10; 20; 25; 50; 75; 100 and 150 μg/ml. 10 μl of culture medium with protozoa and 10 μl of a solution of the test substance were applied to a chamber slide. The experiment was done in five replicates.
Slides were examined under a light microscope, antiprotozoal activity of substances (MIC and IC50) were determined by the death of protozoa. The Hill regression model with 5 parameters was used for the analysis.

[2] = tested on: Candida albicans RCPF Y-401/NCTC-885-653; test: Antifungal activity, 2-fold serial dilutions in Saburo glucose broth; format: cell-based, C. albicans; conditions: for MIC: Candida albicans
Description: (§1) The study of the antifungal activity of compound I in vitro was carried out in accordance with [Metodicheskiye rekomendatsii No 2. Mikologicheskoye issledovaniye ob″yektov okruzhayushchey sredy i opredeleniye protivogribkovoy aktivnosti razlichnykh veshchestv.—GOU DPO SPbMAPO NII meditsinskoy mikologii im. P. N. Kashkina, GBOU VPO SZGMU im. I. I. Mechnikova Minzdrava. SPb.: Izd. Dom SPbMAPO.—2008.—S. 16. Methodological recommendations No 2. Mycological examination of environmental objects and determination of antifungal activity of various substances.—State Educational Institution of St. Petersburg Medical Academy of Postgraduate Education with Scientific Research Institute of Medical Mycology named after P. N. Kashkin, State Educational Institution of Higher Professional Education North-West State Medical University named after I. I. Mechnikov, Ministry of Health. St. Petersburg.:: Publishing House SPbMAPO.—2008.—P. 16].
(§2) The study of the antifungal activity of substances in vitro was carried out in a liquid nutrient medium (Saburo glucose broth) in biological tubes by the method of 2-fold serial dilutions. In test tubes, three parallel series of dilutions of the test substance were prepared in the following way.
Saburo's liquid broth was sterilely poured in 3 ml into each tube; 4.5 ml was poured into the first tube of the row. A total of 14 tubes were used in a row; of which the last was a control one. 400 mg of the test substance was taken as a standard sample and dissolved in 10 ml of distilled water. Thus, the initial dilution contained the test substance at a concentration of 40000 ug/ml. Then 0.5 ml of this dilution was introduced into the first test tube of the series (with 4.5 ml of medium), thereby diluting the concentration of the substance by another 10 times. Therefore, the first tube of the series contained 4000 μg/ml of the test substance. Then, 3 ml of the solution was taken from the first tube and transferred to the second tube, thoroughly purged, then 3 ml of the solution were taken again from the second tube and transferred to the third tube, etc.; from the penultimate tube, 3 ml was poured. […] The growth of cultures was initially assessed visually, comparing the growth of microorganisms in the presence of test compounds with the growth of culture without them. […] The first lowest concentration of the substance (from a series of consecutive dilutions), where the growth of fungi was suppressed or not visually determined, was considered the minimum inhibitory concentration (MIC).
(§3) For the preparation of inoculum, were respectively used pure (2-5) days cultures of yeast and mycelial fungi, grown on Saburo's dense nutrient broth. […] The inoculum was used within 15 minutes after preparation; the purity of the fungal strains was monitored before each experiment. […]

[3] = tested on: Rhizopus oryzae RCPF F-1537/1722; test: as above; format: cell-based, Rh. oryzae; conditions: for MIC: read-out: The value of the MIC
Description: as §1, §2
Saburo's liquid broth was sterilely poured in 3 ml into each tube; 4.5 ml was poured into the first tube of the row. A total of 14 tubes were used in a row; of which the last was a control one. […] The growth of cultures was initially assessed visually, comparing the growth of microorganisms in the presence of test compounds with the growth of culture without them. […] The first lowest concentration of the substance (from a series of consecutive dilutions), where the growth of fungi was suppressed or not visually determined, was considered the minimum inhibitory concentration (MIC).
as §3

[4] = death of protozoa, Hill regression
[5] = C. albicans RCPF Y-401/NCTC-885-653

Compound	destruction of the monolayer, drug with the virus ([1]; 150 μg/ml)	destruction of the monolayer, drug with the virus ([1]; 200 μg/ml)	concentration with virulicidal effect [1]	IC50 (Stylonychia mytilus; [4])	MIC (Stylonychia mytilus; death of protozoa, read-out: MIC)	MIC ([2]; NCTC885, C. albicans RCPF Y-401/NCTC-885-653, read-out: The value of the MIC)	MIC ([3]; Rh. nigricans RCPFF-l537/1722)	destruction of the monolayer, drug with the virus ([1]; 100 μg/ml)	MIC (Stylonychia mytilus)	IC50 (Stylonychia mytilus)	The value of the MIC [2, 5]	MIC ([2]; NCTC885, read-out: The value of the MIC)	MIC [3]	MIC (Stylonychia mytilus; death of protozoa)	IC50 (95% confidence interval) (Stylonychia mytilus; [4])	The value of the MIC ([3]; Rh. nigricans RCPFF-l537/1722)
CCCCCCCCCCCC[N+](C)(C)Cc1cnc(C[N+](C)(C)CCCCCCCCCCCC)c2c1COC(CC)O2 (stereo not shown) [Compound I, 5,8-(Bis(methylene (N, N-dimethyl-N-dodecylammonium))-2-ethyl-4H-[1,3]dioxino [4,5-c]pyridiniumdichloride]	++ (++ - −40-70% destruction of the monolayer)	− (−0-10% destruction of the monolayer)	200 µg/mL	59 µg/mL	25 µg/mL	62.5 µg/mL	62.5 µg/mL									
CCCCCCCCCCCCCC(=O)NCCC[N+](C)(C)Cc1ccccc1.O.[Cl-] [Miramistin, benzyldimethyl [3-(myristoylamino)propyl]-ammonium chloride monohydrate]	− (−0-10% destruction of the monolayer)	− (−0-10% destruction of the monolayer)	150 µg/mL					+++ (+++ - 90-100% destruction of the monolayer)	50 µg/mL	92 µg/mL	inactive	> 500 µg/mL	62.5 µg/mL			
alkyldimethyl(phenylmethyl) ammonium chloride [Benzalconium chloride]	++ (++ - −40-70% destruction of the monolayer)	− (−0-10% destruction of the monolayer)									7.8 µg/mL			30 µg/mL	67 (66-69) μg/ml	15.6 µg/mL

Source: patent publication US11014934B2, “Antiseptic drug” (AO “TATKHIMFARMPREPARATY”, priority 2017, dated 2021)
